# In publication PMC8264259, “A Novel Ruthenium(II) Complex With Lapachol Induces G2/M Phase Arrest Through Aurora-B Kinase Down-Regulation and ROS-Mediated Apoptosis in Human Prostate Adenocarcinoma Cells” (Frontiers in Oncology, 2021):
# Counter-ions that a name gives are not always drawn.
# Assays:
# [1] = system: PNT-2 (human prostate epithelial cells); experiment: Alamar blue cytotoxicity assay, PNT-2 non-cancer cells; format: cell-based; details: mean ± S.E.M.
# Text: (§1) Human lung carcinoma (A549, ATCC® CCL-185™), human hepatocellular carcinoma (HepG2, ATCC® HB-8065™), and human breast adenocarcinoma (MDA-MB-231, ATCC® HTB-26™) were obtained from American Type Cell Collection (ATCC). Human melanoma (A-375, BCRJ-0278), Human colorectal adenocarcinoma (Caco-2, BCRJ 0059), human prostate adenocarcinoma (DU-145, BCRJ-0078, and PC-3, BCRJ-0269), human mouth fibroblast (FGH, BCRJ-0089), and human prostate epithelial cells (PNT-2, BCRJ-0366) were obtained from Rio de Janeiro Cells Bank (BCRJ). The cells A549, A-375, Caco-2, DU-145, HepG2, MDA-MB-231, and FGH were cultured in Dulbecco’s Modified Eagle’s Medium (DMEM, Gibco-Invitrogen®), PC-3 and PNT-2 cells were grown in Roswell Park Memorial Institute Medium (RPMI-1640, Gibco-Invitrogen®). Both mediums were supplemented according to the needs of each lineage, as recommended by its cell banks with 2 mM L-glutamine (Gibco-Invitrogen®), 10% or 20% fetal bovine serum (Gibco-Invitrogen®), 1% antibiotic-antimycotic solution (5 mg/ml penicillin, 5 mg/ml streptomycin, and 10 mg/ml neomycin, Gibco-Invitrogen®), and 3.7 g/L of NaHCO3 (Sigma-Aldrich). All cell lines were cultured in flasks at 37°C in 5% CO2 and 96% of relative humidity according to the procedures proposed by ([31]), and a mycoplasma stain kit (Sigma-Aldrich) was used to confirm the use of cells devoid of contamination. The assays were conducted between the third and the seventh-cell passage with sub-cultures every 3 to 4 days to maintain exponential growth. The cell viability was checked using the trypan blue dye exclusion assay for all experiments where over 95% of the cells were viable at the beginning of the tests.
# (§2) The in vitro antiproliferative activity was quantified using the Alamar blue® assay, according to the method reported by ([32]). Cells were seeded in 96-well plates for all experiments (1.5 × 10^4 cells/well). After 24 h, the complexes were dissolved in DMSO and added to each well and incubated for 24 h. Dilutions of the complexes were prepared to obtain concentrations ranging from 0.3 to 100 μM. […] DMSO (0.1% v/v) was used as the vehicle control. Following 24 h of incubation, 50 μl of Alamar blue® (resazurin at 0.01% w/v, Sigma-Aldrich) was added to each well, and the plates were incubated, at 37°C, in the dark. Fluorescence reading was performed in a Synergy H1 Fluorescence Spectrophotometer (BioTek®), using excitation and emission filters at wavelengths of 560 and 590 nm, respectively. The fluorescence intensity was measured in arbitrary fluorescence units (AFU) and the AFU of untreated cells (CTL) was considered 100%. The cytotoxic effects of the compounds were estimated in terms of cell proliferation inhibition (%) and expressed as half-maximal inhibitory concentration (IC50). The cell proliferation inhibition percentage of cells exposed to treatments was calculated following: % Inhibition = 100 − (AFU of treated well/AFU of control well) × 100). The IC50 values were calculated from the cell proliferation inhibition percentage by nonlinear regression method using CompusSyn® Software.
# [2] = system: DU-145 (human prostate adenocarcinoma); experiment: Alamar blue cytotoxicity assay, DU-145; format: cell-based; details: for IC50: DU-145, Alamar blue, 24-h incubation, mean ± S.E.M.
# Text: as §1, §2
# [3] = system: MDA-MB-231 (human breast adenocarcinoma); experiment: Alamar blue cytotoxicity assay, MDA-MB-231; format: cell-based; details: for IC50: MDA-MB-231, Alamar blue, 24-h incubation, mean ± S.E.M.
# Text: as §1, §2
# [4] = system: DU-145 MCTSs; experiment: 3D multicellular tumor spheroids (MCTSs) culture; format: cell-based, human; details: 3D spheroids, 24 h, Alamar blue; read-out: IC50 against the DU-145 MCTSs
# Procedure: Multicellular tumor spheroids (MCTSs) were obtained according to the method reported by ([33]). Briefly, 200 μl of a solution of DU-145 cells (2.0 × 10^3 cells/well) were inserted in agarose-coated 96-well plates (1.5% w/v) and cultured in complete medium plus 3% Matrigel® (Corning). DU-145-MCTSs with stable structures had formed after five days. […] Negative control received the vehicle (DMSO 0.1% v/v) that was used for diluting the compounds tested. Finally, the MCTS proliferation inhibition (%) and IC50 were determined by Alamar blue® assay as described above. To investigate morphological changes other MCTSs were treated with 0.25, 0.5, 1.0, 1.5, and 2.0 μM of complex (2) and examined for 7 days. Spheroid integrity and diameter of MCTSs were analyzed by phase-contrast microscopy (Inverted Trinocular Microscope Opton TNB-O5T-PL) using AxioVision LE software (Carl Zeiss, Germany).
# [5] = system: DU-145 cells; experiment: Clonogenic assay; format: cell-based, human; details: 24 h treatment, colonies after 7 days
# Procedure: The clonogenic assay was performed in accordance with the guidelines of ([34]). […] DMSO (0.1% v/v) was used as the vehicle control. After 24 h, the cells were washed with PBS (Gibco-Invitrogen®) and harvested by trypsinization. Cells were counted using a Neubauer chamber and replated then on cell culture dishes of 21.5 cm^2 in a density of 200 cells per culture dish for each treatment in triplicate. After 7 days, cells were fixed in ice-cold methanol: acetic acid: distilled water (1:1:8), air-dried, and stained with crystal violet (0.5% w/v, Sigma-Aldrich) for 20 min. Colonies with at least 50 cells were counted. Plating efficiency (PE) of DU-145 cells was calculated by the ratio of the number of colonies observed after 7 days of incubation to the number of cells seeded (two hundred). The average of colonies in control was considered as 100%, and the number of colonies that arise after treatment of cells is called the surviving fraction (SF), obtained by:
# SF = Numberofcoloniescountedineachtreatment/Numberofcoloniescountedincontrol x PE × 100
# [6] = system: A549 (human lung carcinoma); experiment: Alamar blue cytotoxicity assay, A549; format: cell-based; details: for IC50: A549, Alamar blue, 24-h incubation, mean ± S.E.M.
# Text: as §1, §2
# [7] = system: PC-3 (human prostate adenocarcinoma); experiment: Alamar blue cytotoxicity assay, PC-3; format: cell-based; details: for IC50: PC-3, Alamar blue, 24-h incubation, mean ± S.E.M.
# Text: as §1, §2
# [8] = system: HepG2 (human hepatocellular carcinoma); experiment: Alamar blue cytotoxicity assay, HepG2; format: cell-based; details: for IC50: HepG2, Alamar blue, 24-h incubation, mean ± S.E.M.
# Text: as §1, §2
# [9] = system: FGH (human mouth fibroblast); experiment: Alamar blue cytotoxicity assay, FGH non-cancer cells; format: cell-based; details: 24-h incubation, mean ± S.E.M.
# Text: as §1, §2
# [10] = system: DU-145 cells; experiment: Annexin-V/PI staining assay (flow cytometry); format: cell-based, human; details: DU-145, 25 μM (~IC50), 24 h
# Procedure: The measurement of cell death was performed by the guidelines of ([35]). Detection of apoptotic/necrotic cells was determined by flow cytometry using the Alexa Fluor® 488 Annexin V/PI (Thermo Fischer Scientific), and the analyses were performed according to the manufacturer’s instructions. […] DMSO (0.1% v/v) was used as the vehicle control. Following 24 h of incubation, the cells were collected with Accutase® (Gibco-Invitrogen®), washed with PBS and resuspended in 200 μl of cold annexin-binding buffer. Next, 10 μl of Alexa Fluor® was added to Annexin V (50 μl/ml) staining buffer, and the mixture was incubated in the dark at 4°C for 15 min. Previously, the analyses, 100 μl of PI (2 μg/ml) was added, and then, the fluorescence was measured by flow cytometry in a FACSCanto flow cytometer (BD Biosciences, USA) using the Diva software. Ten thousand events were evaluated per experiment, and cellular debris was omitted from the analysis.
# [11] = system: A-375 (human malignant melanoma); experiment: Alamar blue cytotoxicity assay, A-375; format: cell-based; details: for IC50: A-375, Alamar blue, 24-h incubation, mean ± S.E.M.
# Text: as §1, §2
# [12] = system: Caco-2 (human colorectal adenocarcinoma); experiment: Alamar blue cytotoxicity assay, Caco-2; format: cell-based; details: for IC50: Homo sapiens, Caco-2, Alamar blue, 24-h incubation, mean ± S.E.M.
# Text: as §1, §2
# [13] = set-up: method as in PMID 30776556; details: previously tested, not tested in the present work; read-out: IC50 (weak cytotoxicity); cited from earlier work
# [14] = Homo sapiens, PNT2, 24-h incubation
smiles,measurement,setting,value
"N.N.[Cl][Pt][Cl] [CIS, Cisplatin, reference compound]",IC50,[1]; 24-h incubation,9.5 ± 0.3 µM
same,IC50,[2],24.3 ± 1.3 µM
same,IC50,[3],22.1 ± 1.7 µM
same,IC50,[4],62.6 µM
same,survival fraction (SF),"[5]; DU-145, 25 μM",69.1%
same,IC50,[6],11.9 ± 0.6 µM
same,IC50,[7],10.8 ± 1.1 µM
same,IC50,[8],14.1 ± 0.5 µM
same,IC50,[9],11.4 ± 0.5 µM
same,population of apoptotic cells,[10],19.5%
same,IC50,[11],16.5 ± 2.3 µM
"COc1cccc2c1C(=O)c1c(O)c3c(c(O)c1C2=O)C[C@@](O)(C(=O)CO)C[C@@H]3O[C@H]1C[C@H](N)[C@H](O)[C@H](C)O1 [DXR, doxorubicin hydrochloride, reference compound]",IC50,[1]; [14],3.2 ± 0.5 µM
same,IC50,[2]; Homo sapiens,2.3 ± 0.5 µM
same,Selectivity index (SI),[2]; SI = IC50[FGH]/IC50[DU-145],1.1
same,Selectivity index (SI),[2]; SI = IC50[PNT-2]/IC50[DU-145],1.4
same,IC50,[3]; Homo sapiens,2.1 ± 0.7 µM
same,Selectivity index (SI),[3]; SI = IC50[FGH]/IC50[MDA-MB-231],1.2
same,Selectivity index (SI),[3]; SI = IC50[PNT-2]/IC50[MDA-MB-231],1.5
same,IC50,[12],2.1 ± 0.8 µM
same,Selectivity index (SI),[12]; SI = IC50[FGH]/IC50[Caco-2],1.2
same,Selectivity index (SI),[12]; SI = IC50[PNT-2]/IC50[Caco-2],1.5
same,survival fraction (SF),"[5]; DU-145, 2.5 μM",18.7%
same,IC50,[6]; Homo sapiens,1.9 ± 0.4 µM
same,Selectivity index (SI),[6]; SI = IC50[FGH]/IC50[A549],1.4
same,Selectivity index (SI),[6]; SI = IC50[PNT-2]/IC50[A549],1.7
same,IC50,[7]; Homo sapiens,2.6 ± 0.3 µM
same,Selectivity index (SI),[7]; SI = IC50[FGH]/IC50[PC-3],1.0
same,Selectivity index (SI),[7]; SI = IC50[PNT-2]/IC50[PC-3],1.2
same,IC50,[8]; Homo sapiens,2.4 ± 0.8 µM
same,Selectivity index (SI),[8]; SI = IC50[FGH]/IC50[HepG2],1.1
same,Selectivity index (SI),[8]; SI = IC50[PNT-2]/IC50[HepG2],1.3
same,IC50,"[9]; Homo sapiens, Fibroblast",2.6 ± 0.6 µM
same,IC50,[11]; Homo sapiens,3.7 ± 0.6 µM
same,Selectivity index (SI),[11]; SI = IC50[FGH]/IC50[A-375],0.7
same,Selectivity index (SI),[11]; SI = IC50[PNT-2]/IC50[A-375],0.9
"CC(C)=CCC1=C(O)C(=O)c2ccccc2C1=O [Lp, 2-hydroxy-3-(3-methylbut-2-en-1-yl)naphthalene-1,4-dione, reference compound]",IC50,[1]; [14],> 100 µM
same,IC50,[2]; Homo sapiens,> 100 µM
same,IC50,[3]; Homo sapiens,> 100 µM
same,IC50,[12],> 100 µM
same,IC50,[6]; Homo sapiens,> 100 µM
same,IC50,[7]; Homo sapiens,> 100 µM
same,IC50,[8]; Homo sapiens,> 100 µM
same,IC50,"[9]; Homo sapiens, Fibroblast",> 100 µM
same,IC50,[11]; Homo sapiens,> 100 µM
[Cl][Ru][Cl].c1ccc(-c2ccccn2)nc1.c1ccc(P(CP(c2ccccc2)c2ccccc2)c2ccccc2)cc1 [cis-[RuCl2(dppm)(bipy)]],IC50,[13],> 100 µM
[Cl][Ru][Cl].c1ccc(P(CP(c2ccccc2)c2ccccc2)c2ccccc2)cc1.c1cnc2c(c1)ccc1cccnc12 [cis-[RuCl2(dppm)(phen)]],IC50,[13],> 100 µM
